Assay results as given in patent publication US6274715A, “Tricyclic erythromycin derivatives” (priority 1997, dated 2001).

Key:
Format in all cases: cell-based
[1] = test system: PROVIDENCIA STUARTII CMX 640; settings: P. stuartii CMX 640; BHI agar; unit assumed
[2] = test system: PSEUDOMONAS AERUGINOSA BMH10; experiment: In vitro antibacterial activity, MIC, BHI agar dilution; settings: P. aeruginosa BMH10, unit assumed
[3] = test system: PSEUDOMONAS AERUGINOSA 5007; experiment: as above; settings: P. aeruginosa 5007, unit assumed
ESCHERICHIA COLI JUHL = settings: E. coli JUHL; BHI agar; unit assumed
[4] = test system: KLEBSIELLA PNEUMONIAE ATCC 8045; experiment: In vitro antibacterial activity, MIC, BHI agar dilution; settings: K. pneumoniae ATCC 8045, unit assumed
[5] = test system: STAPHYLOCOCCUS AUREUS ATCC 6538P; experiment: as above; settings: S. aureus ATCC 6538P, 35-37° C., 20 to 24 hours, unit assumed
PSEUDOMONAS CEPACIA 296I = experiment: as above; settings: P. cepacia 296I, unit assumed
ESCHERICHIA COLI H560 = experiment: as above; settings: E. coli H560, unit assumed
ESCHERICHIA COLI SS = experiment: as above; settings: E. coli SS, unit assumed
[6] = test system: PSEUDOMONAS AERUGINOSA K799/61; experiment: as above; settings: P. aeruginosa K799/61, unit assumed
[7] = test system: STAPHYLOCOCCUS AUREUS A-5278; experiment: as above; settings: S. aureus A-5278, unit assumed
[8] = test system: STAPHYLOCOCCUS EPIDERMIDIS 3519; settings: S. epidermidis 3519; BHI agar; unit assumed
ESCHERICHIA COLI DC-2 = experiment: In vitro antibacterial activity, MIC, BHI agar dilution; settings: E. coli DC-2, unit assumed
[9] = test system: PSEUDOMONAS AERUGINOSA DPHD-2862; experiment: as above; settings: P. aeruginosa DPHD-2862, unit assumed
[10] = test system: ENTEROBACTER AEROGENES ATCC 13048; experiment: as above; settings: E. aerogenes ATCC 13048, unit assumed
[11] = test system: STREPTOCOCCUS PYOGENES EES61; experiment: as above; settings: S. pyogenes EES61, unit assumed
[12] = test system: STREPTOCOCCUS PYOGENES 930; experiment: as above; settings: S. pyogenes 930, unit assumed
[13] = test system: MYCOBACTERIUM SMEGMATIS ATCC 114; experiment: as above; settings: M. smegmatis ATCC 114, unit assumed
[14] = test system: STAPHYLOCOCCUS AUREUS CMX 642A; experiment: as above; settings: S. aureus CMX 642A, unit assumed
CANDIDA ALBICANS CCH 442 = experiment: as above; settings: C. albicans CCH 442, unit assumed
[15] = test system: STREPTOCOCCUS PYOGENES PIU 2548; experiment: as above; settings: S. pyogenes PIU 2548, unit assumed
[16] = test system: STAPHYLOCOCCUS AUREUS 1775; experiment: as above; settings: S. aureus 1775, unit assumed
ESCHERICHIA COLI KNK 437 = settings: E. coli KNK 437; BHI agar; unit assumed
[17] = test system: STREPTOCOCCUS BOVIS A-5169; experiment: In vitro antibacterial activity, MIC, BHI agar dilution; settings: S. bovis A-5169, unit assumed
[18] = test system: ACINETOBACTER CALCOACETICUS CMX 669; experiment: as above; settings: A. calcoaceticus CMX 669, unit assumed
[19] = test system: PSEUDOMONAS AERUGINOSA K799/WT; experiment: as above; settings: P. aeruginosa K799/WT, unit assumed
STR[…] 508 = experiment: as above; settings: S. agalactiae CMX 508, unit assumed
Outline: (§1)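 BHI agar dilution, 12 plates; inoculum 1:100 (1:10 slow-growing strains), Steers replicator; 35-37° C, 20-24 h. MIC = lowest conc. with no growth/slight haze/sparse colonies vs growth control, visual read. Erythromycin A reference plate.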

M[…] ATCC 9341 = experiment: as above; settings: M. luteus ATCC 9341, unit assumed
Outline: as §1

M[…] ATCC 4698 = experiment: as above; settings: M. luteus ATCC 4698, unit assumed
Outline: as §1

EN[…] ATCC 8043 = experiment: as above; settings: E. faecium ATCC 8043, unit assumed
Outline: as §1

[20] = test system: PSEUDOMONAS AERUGINOSA DPHD-5263; experiment: as above; settings: P. aeruginosa DPHD-5263, unit assumed
[21] = test system: STAPHYLOCOCCUS AUREUS CMX 553; experiment: as above; settings: S. aureus CMX 553, unit assumed

Measured: MIC

CC[C@H]1OC(=O)[C@H](C)C(=O)[C@H](C)[C@@H](O[C@@H]2O[C@H](C)C[C@H](N(C)C)[C@H]2O)[C@](C)(OC)C[C@@H](C)C2=N[C@H](COCc3cccc(Cl)c3)CN3C(=O)O[C@@]1(C)[C@H]3[C@H]2C [Example 80]
1.56 µg/mL: ESCHERICHIA COLI SS | [13]
3.1 µg/mL: [6]
0.05 µg/mL: M[…] ATCC 9341 | EN[…] ATCC 8043
0.39 µg/mL: [5] | [8] | [14] | [21]
> 100 µg/mL: [1] | [2] | [3] | ESCHERICHIA COLI JUHL | [4] | ESCHERICHIA COLI H560 | ESCHERICHIA COLI DC-2 | [9] | [10] | ESCHERICHIA COLI KNK 437 | [19] | [20]
50 µg/mL: [12]
0.01 µg/mL: [11]
100 µg/mL: PSEUDOMONAS CEPACIA 296I | [7] | CANDIDA ALBICANS CCH 442 | [16] | [18]
0.2 µg/mL: [15] | M[…] ATCC 4698
≤ 0.005 µg/mL: [17] | STR[…] 508

CC[C@H]1OC(=O)[C@H](C)C(=O)[C@H](C)[C@@H](O[C@@H]2O[C@H](C)C[C@H](N(C)C)[C@H]2O)[C@](C)(OC)C[C@@H](C)C2=NC3CN(CCOC)CC3N3C(=O)O[C@@]1(C)[C@H]3[C@H]2C (stereo partly drawn) [Example 126]
0.05 µg/mL: [11] | STR[…] 508
3.1 µg/mL: [6]
0.2 µg/mL: M[…] ATCC 9341 | EN[…] ATCC 8043
12.5 µg/mL: [13]
0.02 µg/mL: [17]
1.56 µg/mL: [8] | [14] | [15] | [21]
0.78 µg/mL: ESCHERICHIA COLI SS | M[…] ATCC 4698
> 100 µg/mL: [1] | [2] | [3] | ESCHERICHIA COLI JUHL | [4] | PSEUDOMONAS CEPACIA 296I | ESCHERICHIA COLI H560 | [7] | ESCHERICHIA COLI DC-2 | [9] | [10] | [12] | CANDIDA ALBICANS CCH 442 | [16] | ESCHERICHIA COLI KNK 437 | [19] | [20]
100 µg/mL: [18]
